Assay results taken from PubChem BioAssay AID248 (DTP/NCI, 2004).
“And” between values parts separate entries of the source, which are not always exact repeats. Identical values can stand only once. Inconclusive results and toxic doses are left out. Cut-off read from the data, not from the text of the source: active = T/C of 150% or more; inactive = T/C below 125%.

Tested on: L1210 leukemia ip in BDF1 mice, survival T/C
Experiment: NCI In Vivo Anticancer Drug Screen. Data for tumor model L1210 Leukemia (intraperitoneal) in B6D2F1 (BDF1) mice
Conditions: endpoint: mean survival time, higher = longer survival
How it was run: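 Read-out is survival time, reported as the treated-group measurement over the vehicle-control measurement.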

[1] = dose: 100.0 mg/kg/injection, schedule: Q01DX001 (ip), vehicle: carboxymethylcellulose (CMC)
[2] = dose: 200.0 mg/kg/injection, schedule: Q01DX001 (ip), vehicle: carboxymethylcellulose (CMC)
[3] = dose: 400.0 mg/kg/injection, schedule: Q01DX001 (ip), vehicle: carboxymethylcellulose (CMC)
[4] = dose: 100.0 mg/kg/injection, schedule: Q01DX009 (ip), vehicle: Klucel (hydroxypropylcellulose) (HPC)
[5] = dose: 100.0 mg/kg/injection, schedule: Q04DX003 (ip), vehicle: Klucel (hydroxypropylcellulose) (HPC)
[6] = dose: 200.0 mg/kg/injection, schedule: Q01DX009 (ip), vehicle: Klucel (hydroxypropylcellulose) (HPC)
[7] = dose: 200.0 mg/kg/injection, schedule: Q04DX003 (ip), vehicle: Klucel (hydroxypropylcellulose) (HPC)
[8] = dose: 400.0 mg/kg/injection, schedule: Q01DX009 (ip), vehicle: Klucel (hydroxypropylcellulose) (HPC)
[9] = dose: 400.0 mg/kg/injection, schedule: Q04DX003 (ip), vehicle: Klucel (hydroxypropylcellulose) (HPC)
[10] = dose: 100.0 mg/kg/injection, schedule: Q01DX001 (ip), vehicle: other
[11] = dose: 200.0 mg/kg/injection, schedule: Q01DX001 (ip), vehicle: other
[12] = dose: 400.0 mg/kg/injection, schedule: Q01DX001 (ip), vehicle: other
[13] = dose: 25.0 mg/kg/injection, schedule: Q04DX002 (ip), vehicle: saline
[14] = dose: 50.0 mg/kg/injection, schedule: Q04DX002 (ip), vehicle: saline
[15] = dose: 100.0 mg/kg/injection, schedule: Q04DX002 (ip), vehicle: saline
[16] = dose: 50.0 mg/kg/injection, schedule: Q01DX009 (ip), vehicle: saline
[17] = dose: 100.0 mg/kg/injection, schedule: Q01DX001 (ip), vehicle: saline
[18] = dose: 100.0 mg/kg/injection, schedule: Q04DX003 (ip), vehicle: saline
[19] = dose: 200.0 mg/kg/injection, schedule: Q04DX003 (ip), vehicle: saline
[20] = dose: 100.0 mg/kg/injection, schedule: Q01DX009 (ip), vehicle: saline with Tween-80
[21] = dose: 200.0 mg/kg/injection, schedule: Q01DX009 (ip), vehicle: saline with Tween-80
[22] = dose: 400.0 mg/kg/injection, schedule: Q01DX009 (ip), vehicle: saline with Tween-80

Measured: T/C

BrCc1ccc(-c2ccccc2)cc1
inactive: dose: 5.0 mg/kg/injection, schedule: Q01DX009 (ip), vehicle: Klucel (hydroxypropylcellulose) (HPC) 96 % of control | dose: 5.0 mg/kg/injection, schedule: Q04DX003 (ip), vehicle: Klucel (hydroxypropylcellulose) (HPC) 92 % of control | dose: 10.0 mg/kg/injection, schedule: Q01DX009 (ip), vehicle: Klucel (hydroxypropylcellulose) (HPC) 93 % of control | dose: 10.0 mg/kg/injection, schedule: Q04DX003 (ip), vehicle: Klucel (hydroxypropylcellulose) (HPC) 97 % of control | dose: 20.0 mg/kg/injection, schedule: Q01DX009 (ip), vehicle: Klucel (hydroxypropylcellulose) (HPC) 98 % of control | dose: 20.0 mg/kg/injection, schedule: Q04DX003 (ip), vehicle: Klucel (hydroxypropylcellulose) (HPC) 93 % of control

CS(=O)(=O)Oc1c(Cl)cc(Cl)c2cccnc12
inactive: [1] 102 % of control | [2] 102 % of control | [3] 111 % of control

Cc1ccc([N+](=O)[O-])c(OC(=O)Nc2ccc(Cl)c(Cl)c2)c1
inactive: [4] 101 % of control | [5] 96 % of control and 106 % of control | [6] 101 % of control | [7] 88 % of control | [8] 114 % of control | [9] 87 % of control and 91 % of control

CC(=O)Oc1c2ccccc2c(OC(C)=O)c2[nH]c(-c3ccccc3)cc12
inactive: [5] 90 % of control | [7] 93 % of control | [9] 90 % of control

Oc1ccc2ccccc2c1C=Nc1ccccc1
inactive: [10] 91 % of control | [11] 98 % of control | [12] 96 % of control

O=N[O-].O=N[O-].O=N[O-].O=N[O-].O=N[O-].O=N[O-].[Ni]
inactive: [13] 106 % of control | [14] 113 % of control | [15] 106 % of control

O/C=C(\Cl)CCl
inactive: dose: 50.0 mg/kg/injection, schedule: Q01DX001 (ip), vehicle: saline 100 % of control | [16] 107 % of control and 108 % of control | [14] 97 % of control and 106 % of control | dose: 50.0 mg/kg/injection, schedule: Q04DX003 (ip), vehicle: saline 97 % of control | [17] 90 % of control | dose: 100.0 mg/kg/injection, schedule: Q01DX009 (ip), vehicle: saline 101 % of control and 104 % of control | [18] 106 % of control

O=C(Nc1ccccc1)N(C1CCCCC1)C1CCCCC1
inactive: [4] 86 % of control | [6] 88 % of control | [8] 89 % of control

C#CC1(NC(=S)Nc2ccc(C)cc2)CCCCC1
inactive: dose: 100.0 mg/kg/injection, schedule: Q01DX009 (ip), vehicle: carboxymethylcellulose (CMC) 100 % of control and 92 % of control | dose: 200.0 mg/kg/injection, schedule: Q01DX009 (ip), vehicle: carboxymethylcellulose (CMC) 95 % of control and 100 % of control | dose: 400.0 mg/kg/injection, schedule: Q01DX009 (ip), vehicle: carboxymethylcellulose (CMC) 106 % of control and 113 % of control

O=[N+]([O-])c1ccc(C2OC(c3ccncc3)=NC2CO)cc1 (stereo not drawn)
inactive: dose: 12.5 mg/kg/injection, schedule: Q04DX002 (ip), vehicle: saline 90 % of control | [13] 97 % of control | [16] 96 % of control | [14] 90 % of control | dose: 75.0 mg/kg/injection, schedule: Q01DX009 (ip), vehicle: saline 102 % of control | dose: 115.0 mg/kg/injection, schedule: Q01DX009 (ip), vehicle: saline 101 % of control

CCOC(=O)C(Cl)CCl (stereo not drawn)
inactive: dose: 50.0 mg/kg/injection, schedule: Q01DX009 (ip), vehicle: Klucel (hydroxypropylcellulose) (HPC) 97 % of control | [4] 100 % of control | [5] 108 % of control | [6] 104 % of control | [7] 97 % of control

O=[N+]([O-])c1cc(Cl)c(O)c([N+](=O)[O-])c1O
inactive: dose: 75.0 mg/kg/injection, schedule: Q01DX001 (ip), vehicle: carboxymethylcellulose (CMC) 103 % of control

CCO/C=C1\SC(=S)N(c2ccco2)C1=O
inactive: dose: 100.0 mg/kg/injection, schedule: Q01DX009 (ip), vehicle: saline sonified 98 % of control | dose: 200.0 mg/kg/injection, schedule: Q01DX009 (ip), vehicle: saline sonified 103 % of control | dose: 400.0 mg/kg/injection, schedule: Q01DX009 (ip), vehicle: saline sonified 92 % of control

CCOP(=O)(OCC)c1ccc(N=Cc2cnc3nc(NC(C)=O)[nH]c(=O)c3n2)cc1
inactive: [10] 109 % of control | [11] 112 % of control | [12] 101 % of control

CCOP(=O)(Nc1cc2c(cc1Cl)-c1ccccc1C2=O)OCC
inactive: [1] 99 % of control | [2] 89 % of control | [3] 91 % of control

NC(=O)C#CC(N)=O
inactive: [4] 97 % of control | [5] 95 % of control | [6] 109 % of control | [7] 97 % of control | [8] 92 % of control | [9] 92 % of control

CCC(C)(O)CCCC(C)C (stereo not drawn)
inactive: [18] 97 % of control | [19] 100 % of control | dose: 400.0 mg/kg/injection, schedule: Q04DX003 (ip), vehicle: saline 92 % of control

Cc1cc(C)[nH]c(=S)n1
inactive: [15] 101 % of control | [18] 97 % of control | dose: 200.0 mg/kg/injection, schedule: Q04DX002 (ip), vehicle: saline 101 % of control | [19] 89 % of control | dose: 400.0 mg/kg/injection, schedule: Q04DX002 (ip), vehicle: saline 94 % of control

COC(=O)C(CSCSC)NC(=O)/C=C/c1ccc(C)cc1 (stereo not drawn)
inactive: [20] 102 % of control | dose: 100.0 mg/kg/injection, schedule: Q04DX003 (ip), vehicle: saline with Tween-80 93 % of control | [21] 101 % of control | [22] 91 % of control | dose: 400.0 mg/kg/injection, schedule: Q04DX003 (ip), vehicle: saline with Tween-80 91 % of control

CC(=O)Oc1c(Br)c(-c2cc([N+](=O)[O-])c(C)c([N+](=O)[O-])c2C)c(OC(C)=O)c(Br)c1-c1cc([N+](=O)[O-])c(C)c([N+](=O)[O-])c1C
inactive: [20] 104 % of control | [21] 91 % of control | [22] 88 % of control

CC(O)COC(C)C (stereo not drawn)
inactive: [17] 98 % of control | dose: 200.0 mg/kg/injection, schedule: Q01DX001 (ip), vehicle: saline 89 % of control | dose: 400.0 mg/kg/injection, schedule: Q01DX001 (ip), vehicle: saline 96 % of control
